Reference: patent US12077503B2, “Substituted cyclic amides and their use as herbicides” (FMC CORPORATION, priority 2015, dated 2024)

Columns and labels:
Format in all cases: in vivo
[1] = test system: wheat (Triticum aestivum); assay: Test A postemergence; conditions: Triticum aestivum, post-emergence, 240 h, postemergence, read-out: Wheat plant response rating; for plant injury at 125 g/ha: 125 g ai/ha, visual injury on 0 to 100 scale (0 no effect, 100 complete control), approx. 10 d; for plant injury at 500 g/ha: 500 g ai/ha, 0 to 100 scale, 0 is no effect, 100 is complete control
Summary of the method: (§1)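 Treatment is preemergence as a directed soil spray after planting, or postemergence at the one- to two-leaf stage, with test chemical in a non-phytotoxic solvent mixture plus surfactant. Plants stay in the greenhouse about 10 d before visual injury scoring on a 0 to 100 scale versus untreated controls.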

[2] = test system: ryegrass, Italian (Italian ryegrass, Lolium multiflorum); assay: Test A postemergence; conditions: Lolium multiflorum, post-emergence, 240 h, postemergence, read-out: Ryegrass, Italian plant response rating; for pest or weed control at 125 g/ha: 125 g ai/ha, visual injury on 0 to 100 scale (0 no effect, 100 complete control), approx. 10 d; for pest or weed control at 500 g/ha: 500 g ai/ha, 0 to 100 scale, 0 is no effect, 100 is complete control
Summary of the method: as §1

[3] = test system: giant foxtail (Setaria faberii); assay: Test A postemergence; conditions: Setaria faberi, post-emergence, 240 h, postemergence, read-out: Foxtail, Giant plant response rating; for pest or weed control at 125 g/ha: 125 g ai/ha, visual injury on 0 to 100 scale (0 no effect, 100 complete control), approx. 10 d; for pest or weed control at 500 g/ha: 500 g ai/ha, 0 to 100 scale, 0 is no effect, 100 is complete control
Summary of the method: as §1

[4] = test system: barnyardgrass (Echinochloa crus-galli); assay: Test A postemergence; conditions: Echinochloa crus-galli, post-emergence, 240 h, postemergence, read-out: Barnyardgrass plant response rating; for pest or weed control at 125 g/ha: 125 g ai/ha, visual injury on 0 to 100 scale (0 no effect, 100 complete control), approx. 10 d; for pest or weed control at 500 g/ha: 500 g ai/ha, 0 to 100 scale, 0 is no effect, 100 is complete control
Summary of the method: as §1

[5] = test system: ragweed (common ragweed, Ambrosia elatior); assay: Test A postemergence; conditions: Ambrosia artemisiifolia, post-emergence, 240 h, postemergence, read-out: Ragweed plant response rating; for pest or weed control at 125 g/ha: 125 g ai/ha, visual injury on 0 to 100 scale (0 no effect, 100 complete control), approx. 10 d; for pest or weed control at 500 g/ha: 500 g ai/ha, 0 to 100 scale, 0 is no effect, 100 is complete control
Summary of the method: as §1

Kochia (Kochia scoparia) = assay: Test A postemergence; conditions: Bassia scoparia, post-emergence, 240 h, postemergence, read-out: Kochia plant response rating; for pest or weed control at 125 g/ha: 125 g ai/ha, visual injury on 0 to 100 scale (0 no effect, 100 complete control), approx. 10 d; for pest or weed control at 500 g/ha: 500 g ai/ha, 0 to 100 scale, 0 is no effect, 100 is complete control
Summary of the method: as §1

corn (Zea mays) = assay: Test A postemergence; conditions: Zea mays, post-emergence, 240 h, postemergence, read-out: Corn plant response rating; for plant injury at 125 g/ha: 125 g ai/ha, visual injury on 0 to 100 scale (0 no effect, 100 complete control), approx. 10 d; for plant injury at 500 g/ha: 500 g ai/ha, 0 to 100 scale, 0 is no effect, 100 is complete control
Summary of the method: as §1

[6] = test system: blackgrass (Alopecurus myosuroides); assay: Test A postemergence; conditions: Alopecurus myosuroides, post-emergence, 240 h, postemergence, read-out: Blackgrass plant response rating; for pest or weed control at 125 g/ha: 125 g ai/ha, visual injury on 0 to 100 scale (0 no effect, 100 complete control), approx. 10 d; for pest or weed control at 500 g/ha: 500 g ai/ha, 0 to 100 scale, 0 is no effect, 100 is complete control
Summary of the method: as §1

[7] = test system: pigweed (Amaranthus retroflexus); assay: Test A postemergence; conditions: Amaranthus retroflexus, post-emergence, 240 h, postemergence, read-out: Pigweed plant response rating; for pest or weed control at 125 g/ha: 125 g ai/ha, visual injury on 0 to 100 scale (0 no effect, 100 complete control), approx. 10 d; for pest or weed control at 500 g/ha: 500 g ai/ha, 0 to 100 scale, 0 is no effect, 100 is complete control
Summary of the method: as §1

[8] = test system: Galium (catchweed bedstraw, Galium aparine); assay: Test A postemergence; conditions: Galium, post-emergence, 240 h, postemergence, read-out: Galium plant response rating; for pest or weed control at 125 g/ha: 125 g ai/ha, visual injury on 0 to 100 scale (0 no effect, 100 complete control), approx. 10 d; for pest or weed control at 500 g/ha: 500 g ai/ha, 0 to 100 scale, 0 is no effect, 100 is complete control
Summary of the method: as §1

rice (Oryra sativa) = assay: Test B flooded paddy test; conditions: Oryza sativa, 250 g ai/ha, Flood; 0 to 100 scale where 0 is no effect and 100 is complete control; read-out: Rice plant response rating
Summary of the method: (§2)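 Visual ratings (0 none to 100 complete control) are relative to untreated plants, taken 13–15 d after treatment in a greenhouse. Test material went straight into floodwater standing 3 cm above the soil, kept constant, on plants at the 2-leaf stage.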

[9] = test system: sedge, umbrella (small-flower umbrella sedge, Cyperus difformis); assay: Test B flooded paddy test; conditions: Cyperus difformis, 250 g ai/ha, Flood; 0 to 100 scale where 0 is no effect and 100 is complete control; read-out: Sedge, Umbrella plant response rating
Summary of the method: as §2

[10] = test system: barnyardgrass (Echinochloa crus-galli); assay: Test B flooded paddy test; conditions: Echinochloa crus-galli, 250 g ai/ha, Flood; 0 to 100 scale where 0 is no effect and 100 is complete control; read-out: Barnyardgrass plant response rating
Summary of the method: as §2

[11] = test system: ducksalad (Heteranthera limosa); assay: Test B flooded paddy test; conditions: Heteranthera limosa, 250 g ai/ha, Flood; 0 to 100 scale where 0 is no effect and 100 is complete control; read-out: Ducksalad plant response rating
Summary of the method: as §2

[12] = test system: pigweed (Amaranthus retroflexus); assay: Test A preemergence; conditions: Amaranthus retroflexus, pre-emergence, 240 h, preemergence, read-out: Pigweed plant response rating; for pest or weed control at 125 g/ha: 125 g ai/ha, approx. 10 d; for pest or weed control at 500 g/ha: 500 g ai/ha
[13] = 0 to 100 scale where 0 is no effect and 100 is complete control

SMILES | plant injury at 125 g/ha [1] [%] | plant injury at 500 g/ha [1] [%] | pest or weed control at 125 g/ha [2] [%] | pest or weed control at 500 g/ha [2] [%] | pest or weed control at 125 g/ha [3] [%] | pest or weed control at 500 g/ha [3] [%] | pest or weed control at 125 g/ha [4] [%] | pest or weed control at 500 g/ha [4] [%] | pest or weed control at 125 g/ha [5] [%] | pest or weed control at 500 g/ha [5] [%] | pest or weed control at 125 g/ha (Kochia (Kochia scoparia)) [%] | pest or weed control at 500 g/ha (Kochia (Kochia scoparia)) [%] | plant injury at 125 g/ha (corn (Zea mays)) [%] | plant injury at 500 g/ha (corn (Zea mays)) [%] | pest or weed control at 125 g/ha [6] [%] | pest or weed control at 500 g/ha [6] [%] | pest or weed control at 125 g/ha [7] [%] | pest or weed control at 500 g/ha [7] [%] | pest or weed control at 125 g/ha [8] [%] | pest or weed control at 500 g/ha [8] [%] | other results
CN1C[C@H](c2cc(C(F)F)cs2)[C@@H](C(=O)Nc2ccccc2F)C1=O [Compound 1120] | 20 | 50 | 20 | 40 | 90 | 90 | 90 | 90 | 0 | 50 | 20 | 70 | 0 | 60 | 30 | 50 | 0 | 20 | 40 | 60 | pest or weed control at 250 g/ha (rice (Oryra sativa)): 20%; pest or weed control at 250 g/ha [9]: 0%; pest or weed control at 250 g/ha [10]: 65%; pest or weed control at 250 g/ha [11]: 100%; pest or weed control at 125 g/ha [12, 13]: 0%; pest or weed control at 500 g/ha [12, 13]: 50%
O=C1NC[C@H](c2ccc(F)c(OC(F)(F)C(F)F)c2)[C@H]1C(=O)Nc1cccc(F)c1F [Compound 1131] | 50 | 70 | 0 | 50 | 80 | 90 | 70 | 90 | 50 | 80 | 60 | 70 | 70 | 80 | 40 | 60 | 50 | 80 | 60 | 60 | pest or weed control at 250 g/ha (rice (Oryra sativa)): 30%; pest or weed control at 250 g/ha [9]: 0%; pest or weed control at 250 g/ha [10]: 60%; pest or weed control at 250 g/ha [11]: 70%; pest or weed control at 125 g/ha [12, 13]: 80%; pest or weed control at 500 g/ha [12, 13]: 90%
Cc1ccc([C@H]2CN(C)C(=O)[C@]2(O)C(=O)Nc2cccc(F)c2F)cc1 (racemic) [Compound 1059] | 0 | 0 | 0 | 20 | 0 | 40 | 40 | 90 | 0 | 0 | 0 | 0 | 0 | 20 | 0 | 0 | 0 | 0 | 0 | 0 | pest or weed control at 250 g/ha (rice (Oryra sativa)): 0%; pest or weed control at 250 g/ha [9]: 0%; pest or weed control at 250 g/ha [10]: 0%; pest or weed control at 250 g/ha [11]: 0%; pest or weed control at 125 g/ha [12, 13]: 0%; pest or weed control at 500 g/ha ([12]; visual injury rating about 10 d after treatment, 0 to 100 scale (0 no effect, 100 complete control)): 0%
CSc1ccccc1NC(=O)[C@H]1C(=O)NC[C@@H]1c1cc(F)c(F)c(F)c1 [Compound 1124] | 0 | 0 | 0 | 0 | 60 | 90 | 60 | 90 | 0 | 50 | 60 | 70 | 0 | 0 | 0 | 0 | 0 | 60 | 50 | 60 | pest or weed control at 250 g/ha (rice (Oryra sativa)): 0%; pest or weed control at 250 g/ha [9]: 0%; pest or weed control at 250 g/ha [10]: 0%; pest or weed control at 250 g/ha [11]: 95%; pest or weed control at 125 g/ha [12, 13]: 50%; pest or weed control at 500 g/ha [12, 13]: 70%
